Reference: patent publication US20230293519A1, “INTEGRIN INHIBITORS AND USES THEREOF IN COMBINATION WITH OTHER AGENTS” (Pliant Therapeutics, Inc., priority 2021, published 2023)
Entries after “also recorded” stand apart in the source; their conditions may differ.

How the values were obtained:
SMAD3 phosphorylation = assay: pSMAD3/SMAD3 in lung tissue and BALF of healthy mice; type: in vivo, mouse; conditions: 4 days of treatment, dose dependent
[1] = test system: patients with idiopathic pulmonary fibrosis (IPF); assay: Phase 2a trial in IPF: FVC, QLF, biomarkers; type: in vivo, human; conditions: for proportion of patients with ≥10% decline in FVCpp: 12 weeks
Text: The exploratory endpoints of the trial measured changes in forced vital capacity (FVC), HRCT-based Quantitative Lung Fibrosis score (QLF), and selected biomarkers over 3 months of treatment.

[2] = SAD and MAD first-in-human studies, plasma LC-MS/MS; type: in vivo; conditions: healthy subjects
Protocol: Healthy human subjects (N=85) were selected for single ascending dose (SAD) and multiple ascending dose (MAD) first-in-human studies. A solution for oral administration was prepared, containing 10 mg/mL of compound 5 in a 50:50 mixture of ORA-SWEET® SF (PERRIGO®, Allegan, Michigan) and sterile water for irrigation. Sufficient solution was administered orally to the subjects to provide between 15 mg/dose and 75 mg/dose of compound 5 in the SAD study and between 10 mg/dose and 40 mg/dose of compound 5 in the MAD study. Concentrations of compound 5 were measured in the subjects by obtaining a sample of plasma from each subject at desired intervals, and subjecting the plasma to liquid chromatography-mass spectrometry-mass spectrometry (LC-MS/MS), with quantification using a calibration curve determined from a range of solutions at standardized concentrations. The lower limit of quantitation (LLOQ) of the assay was 1 ng/mL and the calibration curve range was 1 to 500 ng/mL.

[3] = test system: normal human bronchial epithelial cells; assay: LAP adhesion assay (xCELLigence cell index), bronchial epithelial cells; type: cell-based; conditions: normal bronchial epithelial cells (express αvβ6)
Text: Two latency associated peptide (LAP) adhesion binding assays were devised using primary human lung cells, including normal (healthy) human bronchial epithelial cells and human lung fibroblasts (healthy and IPF).
Human bronchial epithelial cells are known to express αvβ6 integrin in culture.

pSmad2/Smad2 = assay: Alveolar pSmad2/Smad2 in BAL, prior study (80 mg and 160 mg QD); type: in vivo; conditions: p<0.0001
Text: FIG. 12 through FIG. 36 illustrate various results from the clinical trial. […] BAL - bronchoalveolar lavage; pSmad2/Smad2 - ratio of phosphorylated Smad2 to total Smad2; QD - once daily.

αvβ6 = αvβ6 (Homo sapiens (Human), UniProt P06756+P18564); assay: [18F]FP-R01-MG-F2 PET/CT target engagement in participants with IPF; type: in vivo
Protocol: The aim of this Example is to assess target engagement of the disclosed compounds to αvβ6 in human participants with IPF using [^18F]FP-R01-MG-F2 PET/computerized tomography (CT) imaging.
This Example was conducted as an open-label, single-dose (60 mg, 120 mg, 240 mg or 320 mg) clinical trial evaluating αvβ6 receptor occupancy in the lungs, safety, and pharmacokinetics of Compound #5 in subjects with IPF. To date, 4 participants have completed the study. Each of these 4 participants was undergoing a pre-existing course of therapy using one of the SoC (Standard of Care) compounds, nintedanib. These participants continued their pre-existing nintedanib therapy throughout this study. Knottin tracer uptake kinetics were compared pre- and post-dose of the disclosed compound, as measured by standardized uptake values (SUVs) and parameters estimated from kinetic modeling in regions-of-interest on dynamic [^18F]FP-R01-MG-F2 PET/CT scans. […] Receptor occupancy was estimated from the output of the two-compartment model (VT, the […]) using standard equations and fitting algorithms, and corrections for VND (non-displaceable tracer binding). For example, in FIG. 10, the data points, shown as circles, are modeled by the following formula: […]
Five subjects with IPF were enrolled: Subject A received a single dose of 60 mg of the disclosed compound followed by a post-dose scan. Subject B received two doses of the disclosed compound separated by two weeks, 120 mg and 240 mg, each followed by a post-dose scan. Subject C received two doses of the disclosed compound separated by two weeks, 240 mg and 320 mg, each followed by a post-dose scan. Subject D received a single dose of 320 mg of the disclosed compound followed by a post-dose scan.

COL1A1 expression = assay: PCLS from human IPF lung tissue, 7 days: COL1A1 expression; type: cell-based
Protocol: PCLS from 5-7 idopathic pulmonary fibrosis (IPF) lung tissue samples were cultured for seven days with one of: DMSO; Compound 5 at 200 nM; nintedanib at 75 nM; pirfenidone at 50 µm; a combination of Compound 5 at 200 nM and nintedanib at 75 nM; a combination of Compound 5 at 200 nM and pirfenidone at 50 µm; or an Alk5 inhibitor at 1 µm. […] FIG. 6D is a bar graph showing relative expression of COL1A1 in precision cut lung slices (PCLS) from idopathic pulmonary fibrosis (IPF) lung tissue upon exposure to Comopund 5, clinical standard of care compounds nintedanib (Nin) and pirfenidone (Pirf), and an ALK5 inhibitor, all versus DMSO control.
PCLS from a single IPF lung tissue sample were cultured for seven days with Compound 5 at concentrations of 200 pM, 2 nM, 60 nM, 200 nM, and 1 µM, along with 0.1% DMSO control and an Alk5 inhibitor at 1 µM. […] COL1A1 expression is also graphed for the PCLS in the presence of 0.1% DMSO control, and an Alk5 inhibitor at 1 µM.

αvβ6, sequence (P06756 31-889): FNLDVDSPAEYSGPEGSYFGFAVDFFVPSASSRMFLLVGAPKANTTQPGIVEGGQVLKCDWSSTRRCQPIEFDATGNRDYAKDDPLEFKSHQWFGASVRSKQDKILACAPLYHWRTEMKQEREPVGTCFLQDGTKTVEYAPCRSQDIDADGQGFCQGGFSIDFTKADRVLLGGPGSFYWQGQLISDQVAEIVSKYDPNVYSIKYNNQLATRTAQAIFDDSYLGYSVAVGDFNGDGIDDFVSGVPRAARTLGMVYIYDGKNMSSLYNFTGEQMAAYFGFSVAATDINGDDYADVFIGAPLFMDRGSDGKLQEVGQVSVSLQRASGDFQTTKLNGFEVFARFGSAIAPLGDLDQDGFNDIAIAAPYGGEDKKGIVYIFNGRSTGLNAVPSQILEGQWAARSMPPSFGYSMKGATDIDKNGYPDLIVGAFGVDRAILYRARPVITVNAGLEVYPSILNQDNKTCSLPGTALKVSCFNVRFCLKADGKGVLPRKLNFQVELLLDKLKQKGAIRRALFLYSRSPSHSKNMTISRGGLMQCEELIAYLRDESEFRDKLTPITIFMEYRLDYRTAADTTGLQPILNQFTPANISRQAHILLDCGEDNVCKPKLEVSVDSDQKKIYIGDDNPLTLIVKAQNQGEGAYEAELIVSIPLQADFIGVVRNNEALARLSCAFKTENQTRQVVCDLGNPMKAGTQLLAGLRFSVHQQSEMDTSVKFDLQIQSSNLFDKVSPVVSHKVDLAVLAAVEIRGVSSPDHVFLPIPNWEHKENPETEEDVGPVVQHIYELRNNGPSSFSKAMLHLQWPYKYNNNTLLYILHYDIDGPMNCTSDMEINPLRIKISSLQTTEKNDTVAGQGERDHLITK
αvβ6, sequence (P06756 890-1048 partner): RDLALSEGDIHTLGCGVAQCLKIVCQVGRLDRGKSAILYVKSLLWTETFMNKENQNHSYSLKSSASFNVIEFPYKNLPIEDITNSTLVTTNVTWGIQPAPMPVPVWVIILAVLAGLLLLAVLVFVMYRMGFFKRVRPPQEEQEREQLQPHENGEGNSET
αvβ6, sequence (P18564 22-788): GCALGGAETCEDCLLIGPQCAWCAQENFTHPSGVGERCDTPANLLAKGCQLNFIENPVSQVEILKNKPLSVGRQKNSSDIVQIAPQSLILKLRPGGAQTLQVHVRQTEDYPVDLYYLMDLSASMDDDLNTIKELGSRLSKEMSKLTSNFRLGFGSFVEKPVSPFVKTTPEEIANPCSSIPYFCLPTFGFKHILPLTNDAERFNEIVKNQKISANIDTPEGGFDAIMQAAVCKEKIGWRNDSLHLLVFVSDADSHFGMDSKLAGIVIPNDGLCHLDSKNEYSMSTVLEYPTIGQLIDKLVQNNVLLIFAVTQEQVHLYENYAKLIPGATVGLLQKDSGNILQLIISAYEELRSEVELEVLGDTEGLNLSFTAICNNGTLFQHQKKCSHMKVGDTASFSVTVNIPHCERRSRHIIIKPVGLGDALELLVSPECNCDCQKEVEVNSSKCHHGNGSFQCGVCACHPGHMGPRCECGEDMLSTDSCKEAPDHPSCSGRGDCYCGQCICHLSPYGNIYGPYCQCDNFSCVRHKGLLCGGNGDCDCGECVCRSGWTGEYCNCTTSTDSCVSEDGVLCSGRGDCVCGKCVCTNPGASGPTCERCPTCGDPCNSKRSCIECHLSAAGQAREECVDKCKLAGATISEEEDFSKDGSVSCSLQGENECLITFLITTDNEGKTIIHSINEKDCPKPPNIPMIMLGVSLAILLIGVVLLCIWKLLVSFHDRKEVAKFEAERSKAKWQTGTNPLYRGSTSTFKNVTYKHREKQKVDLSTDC

COCCN(CCCCc1ccc2c(n1)NCCC2)CC[C@H](Nc1ncnc2ccccc12)C(=O)O [Compound 5, (S)-4-((2-methoxyethyl)(4-(5,6,7,8-tetrahydro-1,8-naphthyridin-2-yl)butyl)amino)-2-(quinazolin-4-ylamino)butanoic acid]
SMAD3 phosphorylation (pSMAD3/SMAD3) in cells isolated from BALF, % of the untreated levels (SMAD3 phosphorylation): approximately 50%
SMAD3 phosphorylation (pSMAD3/SMAD3) in lung tissue, % of the untreated levels (SMAD3 phosphorylation): approximately 50%
LS Mean change from baseline in FVC at week 12, not on SoC subgroup ([1]; 40 mg (N=5)): -43.1 mL
Mean Percent Change in QLF extent from baseline to Week 12 ([1]; 40 mg (N=15)): 3.15%
LS Mean change from baseline in FVC at week 12, on SoC subgroup ([1]; 40 mg (N=17)): -58.3 mL
change in FVC from baseline to Week 12 ([1]; 40 mg dose group): -46.1 mL
reduction in FVC decline relative to placebo ([1]; 40 mg dose group): 38%
proportion of patients with ≥10% decline in FVCpp ([1]; 40 mg group): 18.2%
LS Mean change from baseline in FVC at week 12, not on SoC subgroup ([1]; 80 mg (N=4)): +138.1 mL
Mean Percent Change in QLF extent from baseline to Week 12 ([1]; 80 mg (N=18)): 0.70%
LS Mean change from baseline in FVC at week 12, on SoC subgroup ([1]; 80 mg (N=19)): -11.9 mL
change in FVC from baseline to Week 12 ([1]; 80 mg dose group): +24.6 mL
proportion of patients with > 2% increase in QLF at 12 weeks ([1]; 80 mg group): 11%
proportion of patients with ≥10% decline in FVCpp ([1]; 80 mg group): 8.7%
Mean Percent Change in QLF extent from baseline to Week 12 ([1]; 160 mg (N=14)): 0.00%
LS Mean change from baseline in FVC at week 12, not on SoC subgroup ([1]; 160 mg (n=3)): +25.8 mL
LS Mean change from baseline in FVC at week 12, on SoC subgroup ([1]; 160 mg (n=19)): -47.5 mL
change in FVC from baseline to Week 12 ([1]; 160 mg dose group): -25.1 mL
reduction in FVC decline relative to placebo ([1]; 160 mg dose group): 66%
proportion of patients with a decrease in QLF (>2% change) at 12 weeks ([1]; 160 mg group): 26.7%
proportion of patients with stable QLF (-2 to 2% change) at 12 weeks ([1]; 160 mg group): 46.6%
proportion of patients with ≥10% decline in FVCpp ([1]; 160 mg group): 4.5%
serum PRO-C3 (type III collagen synthesis) change from baseline vs placebo ([1]; not significant): decreased; also recorded: reduced
serum PRO-C6 (type VI collagen synthesis) change from baseline vs placebo ([1]; not significant): decreased; also recorded: reduced
change in FVC from baseline to Week 12 ([1]; pooled Compound 5 groups): -15.1 mL
oral bioavailability and pharmacokinetics [2]: good oral bioavailability and pharmacokinetics
inhibition of cell adhesion to LAP [3]: substantially inhibited
percent change of alveolar pSmad2/Smad2 from baseline at 24 hours vs placebo (pSmad2/Smad2): statistically significant
decrease in volume of distribution of the knottin radiotracer in the lungs (αvβ6; 60 mg dose): approximately 50%
decrease in volume of distribution of the knottin radiotracer in the lungs (αvβ6; 240 and 320 mg doses): greater than 95%
%DeltaVt (αvβ6; Subject A00, 60 mg single dose): 52.23%
Vs (Vt corrected for non-displaceable binding, VND=0.66) (αvβ6; Subject A00, 60 mg single dose): 1.18
Vt (post-dose) (αvβ6; Subject A00, 60 mg single dose): 1.84
%DeltaVt (αvβ6; Subject B120, 120 mg): 58.76%
Vs (Vt corrected for non-displaceable binding, VND=0.66) (αvβ6; Subject B120, 120 mg): 0.99
Vt (post-dose) (αvβ6; Subject B120, 120 mg): 1.65
%DeltaVt (αvβ6; Subject B240, 240 mg): 97.56%
Vs (Vt corrected for non-displaceable binding, VND=0.66) (αvβ6; Subject B240, 240 mg): 0.06
Vt (post-dose) (αvβ6; Subject B240, 240 mg): 0.72
%DeltaVt (αvβ6; Subject C240, 240 mg): 70.91%
Vs (Vt corrected for non-displaceable binding, VND=0.66) (αvβ6; Subject C240, 240 mg): 0.32
Vt (post-dose) (αvβ6; Subject C240, 240 mg): 0.98
%DeltaVt (αvβ6; Subject C320, 320 mg): 82.73%
Vs (Vt corrected for non-displaceable binding, VND=0.66) (αvβ6; Subject C320, 320 mg): 0.19
Vt (post-dose) (αvβ6; Subject C320, 320 mg): 0.85
%DeltaVt (αvβ6; Subject D320, 320 mg): 93.57%
Vs (Vt corrected for non-displaceable binding, VND=0.66) (αvβ6; Subject D320, 320 mg): 0.09
Vt (post-dose) (αvβ6; Subject D320, 320 mg): 0.75
αvβ6 receptor occupancy (αvβ6; lungs of IPF participants): about 100%
concentration at which the exposure response saturates (αvβ6; measured drug exposure at 4 hours): about 100 nM
reduction of COL1A1 expression (COL1A1 expression; Compound 5 200 nM, nintedanib 75 nM, pirfenidone 50 µM, 5-7 IPF lungs): 43%
concentration with significant reduction of COL1A1 expression (COL1A1 expression; single IPF lung, 200 pM to 1 µM tested): ≥ 2 nM
reduction in COL1A1 expression at concentrations with significant effect (COL1A1 expression; single IPF lung, Compound 5 ≥ 2 nM): ≥ 47%
